In patent US7629318B2, “Immunosuppressant compounds, methods and uses related thereto” (priority 2002, dated 2009):
Where two headings read alike, the source gives them in different places. Numbered stars: 1 amine (or outer) side, 2 acyl side, 3 side chain; on linkers, the order of the positions; unused ones are H or OH. Square brackets hold non-standard residues; d marks the D form. Peptide text beside a SMILES is read from it. * marks the point of attachment. ξ: configuration not given here. Gly(1-amidinopiperidin-4-yl) = N=C(N)N1CCC([C@H](N)C(=O)O)CC1; X1 = CC(C)c1oc([C@H](CO)N[*:1])nc1C(=O)[*:2]; Pro(3R-Ph) = O=C(O)[C@H]1NCC[C@@H]1c1ccccc1; Tic = O=C(O)[C@@H]1Cc2ccccc2CN1; Cha = N[C@@H](CC1CCCCC1)C(=O)O; NMe(benzyl) = CN(Cc1ccccc1)*; ξDisc = O=C(O)C1NCc2ccccc21; Nle = CCCC[C@H](N)C(=O)O

Legend:
[1] = target: T1, Priess (DR4Dw4: DRA1*0101 DRB1*0401) cells (Homo sapiens, UniProt P01903+P01911, A100K/A169T/F76Y/I96L/K127E/L162R/M171V/N62H/P40V/Q125Y/R42H/S133A/S149N/S66Y/V115G/V209L/W38E); assay: Competitive binding to MHC II proteins expressed on Priess cells; assay type: cell-based
T1 construct: MHC II Proteins Expressed on PRIESS and LG2 Cells; endogenous in cells; host or cells: Priess cells
In short: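 LG2 or Priess cells incubated 4 h at 37° C, 6% CO2 in 1% FCS with 10-fold compound dilutions (series 16 nM-1615 μM) and biotinylated-detectable indicator peptide (16 μM solution added). Lysates captured 2 h at 4° C; bound peptide detected via europium-streptavidin time-resolved fluorescence (ex 340, em 613 nm).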

[2] = target: DR4Dw14 (DRA1*0101 DRB1*0404) (Homo sapiens, UniProt P01903+P01911, A100R/A169T/F76Y/I96L/K127E/L162R/M171V/N62H/P40V/Q125Y/R42H/S133A/S149N/S66Y/V209L/W38E); assay: Competitive binding to MHC-II protein DR4Dw14; conditions: 0404; read-out: Protein binding IC50 (nM) 0404
In short: (§1)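 Each MHC-II allele incubated with compound 16 hours at room temperature in duplicate; controls lacked compound, or both compound and MHC-II. Complexes captured 2 h at 4 °C, bound biotinylated peptide detected via europium-streptavidin and DELFIA enhancement, time-resolved fluorescence read at ex 340/em 613 (615) nm.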

[3] = target: Cathepsin D (EC 3.4.23.5 from bovine spleen) (Bos taurus, UniProt P80209)
[4] = target: DR4Dw4 (DRA1*0101 DRB1*0401) (Homo sapiens, UniProt P01903+P01911, A100K/A169T/F76Y/I96L/K127E/L162R/M171V/N62H/P40V/Q125Y/R42H/S133A/S149N/S66Y/V115G/V209L/W38E); assay: Competitive binding to MHC-II protein DR4Dw4
In short: as §1

[5] = target: DR1 (DRA1*0101 DRB1*0101) (Homo sapiens, UniProt P01903+P01911, A100R/D57E/F55L/F60I/F76Y/I96L/L162R/M171V/P40L/Q125E/R42F/V115G/Y59C); assay: Competitive binding to MHC-II protein DR1
In short: as §1

[6] = Protein binding IC50 (nM) 0101, 0101

Question: How did the IC50 [1] turn out when `CSCC[C@H](NC(=O)[C@@H]1Cc2ccccc2CN1C(=O)[C@@H](NC(=O)[C@H](CC1CCCCC1)NC(C)=O)C1CCN(C(=N)N)CC1)C(=O)N1CC[C@H](c2ccccc2)[C@H]1C(=O)N[C@@H](CO)c1nc(C(=O)N(C)C)c(C(C)C)o1` [Compound P60, Ac-Cha-Gpg-Tic-Met-βPhPro-[S(oxaz)L]-NMe2] (Ac-[Cha][Gly(1-amidinopiperidin-4-yl)][Tic]M[Pro(3R-Ph)][X1]-NMe2) was run?
Answer: 2.1 µM

Question: What about the IC50 [2] of the same molecule?
Answer: 190 nM

Question: And the “Stability (Arbitrary units) Cath D 4 h” value [3]?
Answer: 108 Arbitrary units

Question: And the IC50 [4]?
Answer: 230 nM

Question: And the IC50 [5, 6]?
Answer: 250 nM

Question: Which results are given for `CCCC[C@H](NC(=O)[C@@H]1Cc2ccccc2CN1C(=O)[C@@H](NC(=O)[C@H](CC1CCCCC1)NC(C)=O)C1CCN(C(=N)N)CC1)C(=O)N1CC[C@H](c2ccccc2)[C@H]1C(=O)N[C@@H](CO)c1nc(C(=O)N(C)C)c(C(C)C)o1` [Compound P53, Ac-Cha-Gpg-Tic-Nle-βPhPro-[S(oxaz)L]-NMe2] (Ac-[Cha][Gly(1-amidinopiperidin-4-yl)][Tic][Nle][Pro(3R-Ph)][X1]-NMe2)?
Answer: IC50 [1]: 3 µM; IC50 [2]: 180 nM; Stability (Arbitrary units) Cath D 4 h [3]: 99 Arbitrary units; IC50 [4]: 410 nM; IC50 [5, 6]: 340 nM

Question: Which IC50 [1] does the source give for `CCCC[C@H](NC(=O)C1c2ccccc2CN1C(=O)[C@@H](NC(=O)[C@H](CC1CCCCC1)NC(C)=O)C1CCN(C(=N)N)CC1)C(=O)N1CC[C@H](c2ccccc2)[C@H]1C(=O)N[C@@H](CO)c1nc(C(=O)N(C)C)c(C(C)C)o1` (stereo partly drawn) [Compound P81-1] (Ac-[Cha][Gly(1-amidinopiperidin-4-yl)][ξDisc][Nle][Pro(3R-Ph)][X1]-NMe2) here?
Answer: 3.4 µM

Question: What about the IC50 [2] of the same molecule?
Answer: 90 nM

Question: And the “Stability (Arbitrary units) Cath D 4 h” value [3]?
Answer: 106 Arbitrary units

Question: And the IC50 [4]?
Answer: 260 nM

Question: And the IC50 [5, 6]?
Answer: 220 nM

Question: With `CCCC[C@H](NC(=O)C1c2ccccc2CN1C(=O)[C@@H](NC(=O)[C@H](CC1CCCCC1)NC(C)=O)C1CCN(C(=N)N)CC1)C(=O)N(C)Cc1ccccc1` (single isomer, unassigned) [Compound P76-1, Ac-Cha-Gpg-Disc-Nle-N(Me)Bn] as the molecule, how does the IC50 ([1]; read-out: Cell binding IC50 (uM) Priess (0401), Priess (0401)) read?
Answer: 9.8 µM

Question: What about the IC50 [2] of the same molecule?
Answer: 1400 nM

Question: What about the “Stability (Arbitrary units) Cath D 4 h” value [3] of the same molecule?
Answer: 104 Arbitrary units

Question: And the IC50 ([4]; read-out: Protein binding IC50 (nM) 0401, 0401)?
Answer: 2300 nM

Question: And the IC50 ([5]; read-out: Protein binding IC50 (nM) 0101, 0101)?
Answer: 550 nM

Question: What does the source list for `CCCC[C@H](NC(=O)C1c2ccccc2CN1C(=O)[C@H](CCCNC(=N)N)NC(=O)[C@H](CC1CCCCC1)NC(C)=O)C(=O)N(C)Cc1ccccc1` (stereo partly drawn) [Compound P72-1, Ac-Cha-Arg-Disc-Nle-N(Me)Bn] (Ac-[Cha]R[ξDisc][Nle]-{NMe(benzyl)})?
Answer: IC50 [1]: 7.5 µM; IC50 [2]: 1700 nM; Stability (Arbitrary units) Cath D 4 h [3]: 101 Arbitrary units; IC50 [4]: 5200 nM; IC50 [5, 6]: 1200 nM
